Several values for one entry are separate records, joined by “and”; a condition that tells them apart may be missing. Identical values can stand only once.
Key:
PPAR-γ = target: T1, PPAR-γ (Homo sapiens, UniProt P37231); assay: Scintillation Proximity Assay (SPA), displacement of 3H labeled darglitazone; type: binding; conditions: 3H darglitazone displacement, read-out: PPAR-gamma Ki
T1 sequence (P37231 1-505): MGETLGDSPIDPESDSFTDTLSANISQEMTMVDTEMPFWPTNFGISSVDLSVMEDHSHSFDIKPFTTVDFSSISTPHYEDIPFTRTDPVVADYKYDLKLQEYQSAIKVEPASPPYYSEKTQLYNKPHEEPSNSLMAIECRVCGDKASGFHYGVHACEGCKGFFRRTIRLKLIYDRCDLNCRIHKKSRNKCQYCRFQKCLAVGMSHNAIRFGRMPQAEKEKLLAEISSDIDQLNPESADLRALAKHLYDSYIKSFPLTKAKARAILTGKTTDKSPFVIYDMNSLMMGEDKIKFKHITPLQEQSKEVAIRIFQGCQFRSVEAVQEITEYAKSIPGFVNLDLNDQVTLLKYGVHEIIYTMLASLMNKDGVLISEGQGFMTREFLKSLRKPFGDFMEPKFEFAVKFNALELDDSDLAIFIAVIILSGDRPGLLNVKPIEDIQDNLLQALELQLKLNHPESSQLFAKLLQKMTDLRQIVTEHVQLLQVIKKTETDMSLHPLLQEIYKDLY
Source text: (§1) Scintillatian Proximity Assay (SPA) Assays
(§2) In the SPA assay, 3H labeled darglitazone (for PPAR-γ) or GW2331 (for PPAR-α) is bound to the PPAR protein captured on SPA polylysine beads and generates radioactive count signal that can be detected by TopCounts (Packard). The PPAR-bound 3H labeled ligand can be displaced by an unlabeled compound. The Ki of the compound can be then determined by the extent of displacement at various compound concentrations. Reagents: • SPA polylysine beads, which can be purchased from Amersham Bioscience. • H labeled Darglitazone for PPAR-γ. • H labeled GW2331 for PPAR-α. • PPAR proteins. • Buffer—PBS, 10% glycerol, 14 mM beta-mercaptoethanol.

PPAR-α = target: T2, PPAR-α (Homo sapiens, UniProt Q07869); assay: Scintillation Proximity Assay (SPA), displacement of 3H labeled GW2331; type: binding; conditions: 3H GW2331 displacement, read-out: PPAR-alpha Ki
T2 sequence (Q07869 1-468): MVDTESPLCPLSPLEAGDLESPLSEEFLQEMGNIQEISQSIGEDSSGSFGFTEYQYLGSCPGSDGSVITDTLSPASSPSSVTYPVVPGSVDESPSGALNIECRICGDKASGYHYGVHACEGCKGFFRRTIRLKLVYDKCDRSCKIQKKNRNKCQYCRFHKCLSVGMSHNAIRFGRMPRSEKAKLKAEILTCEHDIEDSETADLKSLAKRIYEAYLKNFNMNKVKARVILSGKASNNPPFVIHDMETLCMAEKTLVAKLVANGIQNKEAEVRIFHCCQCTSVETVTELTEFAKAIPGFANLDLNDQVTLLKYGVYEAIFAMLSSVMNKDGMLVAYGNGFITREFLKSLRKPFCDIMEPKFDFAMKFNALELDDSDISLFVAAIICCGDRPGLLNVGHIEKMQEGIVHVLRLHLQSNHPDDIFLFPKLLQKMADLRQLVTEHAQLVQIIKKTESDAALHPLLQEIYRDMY
Source text: as §1, §2

SMILES | Ki (PPAR-γ) | Ki (PPAR-α)
Cc1oc(-c2ccccc2)nc1CCCOc1cccc(-c2cccc(OC(C)(C)C(=O)O)n2)c1 [Example A-13] | 3500 nM | 10000 nM
Cn1nc(-c2ccccc2)nc1COc1cccc(-c2cccc(OC3(C(=O)O)CCC3)c2)c1 [Example A-19] | 59 nM | 700 nM
Cc1oc(-c2ccccc2)nc1CCCOc1cccc(-c2cccc(OC(C)(C)C(=O)O)c2)c1 [Example A-23] | 390 nM | 180 nM
Cc1oc(-c2cccc(F)c2)nc1COc1cccc(-c2cccc(OC3(C(=O)O)CCC3)c2)c1 [Example A-11] | 580 nM | 120 nM
CC(C)(Oc1cccc(-c2cccc(OCCCOCc3ccccc3)c2)c1)C(=O)O [Example A-27] | 2400 nM | 1300 nM
CCOC(Cc1cccc(CNC(=O)OCCc2nc(-c3ccccc3)oc2C)c1)C(=O)O (stereo not shown) [Example B-24] | 1600 nM | 1000 nM
Cn1nc(-c2ccccc2)nc1CCOc1cccc(-c2cccc(OC(C)(C)C(=O)O)c2)c1 [Example A-25] | 3200 nM | 4200 nM
Cc1oc(-c2ccccc2)nc1COc1cccc(-c2cccc(OC(C)(C)C(=O)O)c2)c1 [Example A-24] | 780 nM | 18 nM
Cc1oc(-c2ccccc2)nc1CCCOc1cccc(-c2cccc(OC3(C(=O)O)CCC3)c2)c1 [Example A-12] | 51 nM | 350 nM
Cc1oc(-c2ccccc2)nc1CCOC(=O)NCc1cccc(OC(C)(C)C(=O)O)c1 [Example B-05] | 1330 nM and 2900 nM and 2000 nM | 2040 nM and 3200 nM and 3600 nM
CCC(Oc1cccc(CNC(=O)OCc2ccc(OCc3ccccc3)cn2)c1)C(=O)O (stereo not shown) [Example B-11] | 7900 nM | 960 nM

Continued, values first:

Ki (PPAR-γ) | Ki (PPAR-α) | SMILES
17 nM | 320 nM | COc1ccc(-c2nc(CCOc3ccc(CC(OC)C(=O)O)cn3)c(C)o2)cc1 [Example D-07]
440 nM | 290 nM | COC(Cc1ccc(OCCc2nc(-c3ccc(Cl)cc3)oc2C)nc1)C(=O)O [Example D-04]
1600 nM | 4800 nM | COC(C)(Cc1ccc(OCCCc2nc(-c3ccccc3)oc2C)cn1)C(=O)O [Example D-28]
1100 nM | 2800 nM | Cc1oc(-c2ccccc2)nc1CCCOc1ccc2cc(CC3(C(=O)O)CCCO3)ccc2c1 (stereo not shown) [Example C-92]
33000 nM | 13000 nM | Cc1oc(-c2ccccc2)nc1COc1ccc(OC2(C(=O)O)CCC2)cc1 [Example C-42]
17 nM | 110 nM | Cc1oc(-c2ccc(C(F)(F)F)cc2)nc1CCOc1ccc(CC2(C(=O)O)CCCO2)cc1 (stereo not shown) [Example C-90]
3700 nM | 700 nM | Cc1oc(-c2ccccc2)nc1CCOc1ccc(OC2(C(=O)O)CCC2)cc1 [Example C-40]
3500 nM | 65 nM | Cc1oc(-c2ccccc2)nc1CCOc1cccc(CC2(C(=O)O)CCC2)c1 [Example C-18]
220 nM | 7700 nM | CCOC(c1ccc(OCCc2nc(-c3ccccc3)oc2C)nc1)C1(C(=O)O)CCC1 (stereo not shown) [Example C-45]
26000 nM | 3200 nM | Cc1oc(-c2ccccc2)nc1COc1ccc(CC2(C(=O)O)CCC2)cc1 [Example C-17]
93 nM | 640 nM | COc1ccc(-c2nc(CCOc3ccc(CC4(C(=O)O)CCCO4)nc3)c(C)o2)cc1 (stereo not shown) [Example C-53]
50 nM | 10 nM | Cc1oc(-c2ccc(C(F)(F)F)cc2)nc1CCOc1ccc(CC2(C(=O)O)CCC2)cc1 [Example C-33]
800 nM | 2100 nM | Cc1oc(-c2ccccc2C#N)nc1CCOc1ccc(CC2(C(=O)O)CCC2)cc1 [Example C-22]
2 nM | 15 nM | COc1cccc(-c2nc(CCOc3ccc(CC(OC)C(=O)O)cn3)c(C)o2)c1 [Example D-08]
400 nM | 800 nM | COC(C)(Cc1ccc(OCCc2nc(-c3ccccc3)oc2C)cn1)C(=O)O [Example D-29]
19 nM | 33 nM | COC(Cc1ccc(OCCc2nc(-c3ccc(C)cc3)oc2C)nc1)C(=O)O [Example D-10]
8000 nM | 3200 nM | Cc1oc(-c2ccccc2)nc1C/C=C/c1ccc(OC2(C(=O)O)CCC2)cc1 [Example C-14]
68 nM | 16 nM | Cc1ccc(-c2nc(CCOc3ccc(CC4(C(=O)O)CCC4)cc3)c(C)o2)cc1 [Example C-26]
2000 nM | 25000 nM | CS(=O)(=O)c1ccc(-c2ccc(CCOc3ccc(CC4(C(=O)O)CCC4)cc3)cc2)cc1 [Example C-11]
2300 nM | 7300 nM | Cc1oc(-c2ccccc2)nc1CCOc1ncc(CC2(C(=O)O)CCCO2)cn1 (stereo not shown) [Example C-76]
6 nM | 120 nM | COc1cccc(-c2nc(CCOc3ccc(CC4(C(=O)O)CCC4)cc3)c(C)o2)c1 [Example C-29]

Source: patent US20050234066A1, “Alpha substituted carboxylic acids” (Agouron Pharmaceuticals, Inc., priority 2004, published 2005)
